Measurements as given in ChEMBL document CHEMBL3879907, “8-azabicyclo[3.2.1]octane compounds as mu opioid receptor antagonists” (2014).

Assays:
[1] = biological target: Delta-type opioid receptor (Homo sapiens, UniProt P41143); experiment: Displacement of [3H]-diprenorphine from human delta opioid receptor expressed in cell membranes
[2] = biological target: Mu-type opioid receptor (Homo sapiens) (UniProt P35372); experiment: Intrinsic activity at human mu opioid receptor expressed in CHOK1 cell membranes at 0.00001 to 20 uM after 30 mins by GTP-Eu nucleotide exchange assay relative to DAMGO; type: functional; settings: CHO-K1
Chain of Mu-type opioid receptor (Homo sapiens) (P35372 whole entry): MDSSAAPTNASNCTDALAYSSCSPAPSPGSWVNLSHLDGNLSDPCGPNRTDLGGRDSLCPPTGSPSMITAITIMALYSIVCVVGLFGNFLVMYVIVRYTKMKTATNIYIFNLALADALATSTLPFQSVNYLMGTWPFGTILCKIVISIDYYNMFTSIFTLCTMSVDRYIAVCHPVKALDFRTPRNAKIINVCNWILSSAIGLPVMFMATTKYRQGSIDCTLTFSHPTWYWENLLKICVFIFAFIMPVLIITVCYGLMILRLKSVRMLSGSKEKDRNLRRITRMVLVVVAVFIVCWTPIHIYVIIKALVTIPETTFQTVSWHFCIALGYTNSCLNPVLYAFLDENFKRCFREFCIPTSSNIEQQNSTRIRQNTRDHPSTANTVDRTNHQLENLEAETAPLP

[3] = biological target: Kappa-type opioid receptor (Cavia porcellus, UniProt P41144); experiment: Displacement of [3H]-diprenorphine from guinea pig kappa opioid receptor expressed in CHOK1 cell membranes; settings: cho-k1
Chain of Kappa-type opioid receptor (P41144 whole entry): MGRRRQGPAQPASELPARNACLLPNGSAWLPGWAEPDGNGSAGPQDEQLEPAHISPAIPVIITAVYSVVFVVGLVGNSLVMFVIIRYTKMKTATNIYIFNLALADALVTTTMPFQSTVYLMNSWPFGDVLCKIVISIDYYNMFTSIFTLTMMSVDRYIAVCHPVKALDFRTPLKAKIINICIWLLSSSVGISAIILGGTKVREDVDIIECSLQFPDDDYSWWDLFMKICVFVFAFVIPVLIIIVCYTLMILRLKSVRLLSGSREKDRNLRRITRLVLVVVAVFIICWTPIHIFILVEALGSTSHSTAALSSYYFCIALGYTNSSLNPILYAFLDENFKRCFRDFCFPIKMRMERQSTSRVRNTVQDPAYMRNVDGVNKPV

Chain of Delta-type opioid receptor (P41143 whole entry): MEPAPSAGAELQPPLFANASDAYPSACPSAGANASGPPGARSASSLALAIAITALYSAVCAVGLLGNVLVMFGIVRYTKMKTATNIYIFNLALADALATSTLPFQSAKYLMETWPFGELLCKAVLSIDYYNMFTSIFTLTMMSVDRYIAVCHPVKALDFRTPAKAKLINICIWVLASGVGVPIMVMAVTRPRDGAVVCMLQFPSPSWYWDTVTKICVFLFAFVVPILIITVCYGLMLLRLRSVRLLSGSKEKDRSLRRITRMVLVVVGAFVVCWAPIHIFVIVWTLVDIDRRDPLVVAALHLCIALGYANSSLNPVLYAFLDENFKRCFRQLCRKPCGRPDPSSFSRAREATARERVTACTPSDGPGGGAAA

| Compound | pKi [1] | Intrinsic activity [2] | pKi [3] |
| --- | --- | --- | --- |
| NC(=O)c1cccc([C@H]2C[C@H]3CC[C@@H](C2)N3CCN(Cc2ccc(F)cc2)C(=O)CO)c1.O=C(O)C(F)(F)F | 7 to 10.5 | < 40% | 7 to 10.5 |
| NC(=O)c1cccc([C@H]2C[C@H]3CC[C@@H](C2)N3CCN(CC2CCCCC2)C(=O)CCCO)c1 | 7 to 10.5 | < 40% | 7 to 10.5 |
| CS(=O)(=O)CC(=O)N(CCN1[C@@H]2CC[C@H]1C[C@@H](c1cccc(C(N)=O)c1)C2)Cc1ccc(F)cc1.O=C(O)C(F)(F)F | 7 to 10.5 | < 40% | 7 to 10.5 |
| NC(=O)c1cccc([C@H]2C[C@H]3CC[C@@H](C2)N3CCCN(CC2CCCCC2)C(=O)CO)c1 | 7 to 10.5 | < 40% | 7 to 10.5 |
| CN(C)S(=O)(=O)N(CCN1[C@@H]2CC[C@H]1C[C@@H](c1cccc(C(N)=O)c1)C2)Cc1c(F)cccc1F.O=C(O)C(F)(F)F | 7 to 10.5 | < 40% | 7 to 10.5 |
| CC(=O)N(CCN1[C@@H]2CC[C@H]1C[C@@H](c1cccc(O)c1)C2)Cc1ccccc1 | 7 to 10.5 | < 40% | 7 to 10.5 |
| C[C@H](CN1[C@@H]2CC[C@H]1C[C@@H](c1cccc(O)c1)C2)N(Cc1ccccc1)C(=O)C1CC1 | 7 to 10.5 | < 40% | 7 to 10.5 |
| CC(C)(C)C(=O)N(CCN1[C@@H]2CC[C@H]1C[C@@H](c1cccc(C(N)=O)c1)C2)Cc1c(F)cccc1F.O=C(O)C(F)(F)F | 7 to 10.5 | < 40% | 7 to 10.5 |
| C[C@H](CN1[C@@H]2CC[C@H]1C[C@@H](c1cccc(O)c1)C2)N(Cc1ccccc1)C(=O)CCC1CCCC1 | 7 to 10.5 | < 40% | 7 to 10.5 |
| C[C@H](O)C(=O)N(CCN1[C@@H]2CC[C@H]1C[C@@H](c1cccc(C(N)=O)c1)C2)Cc1c(F)cccc1F.O=C(O)C(F)(F)F | 7 to 10.5 | < 40% | 7 to 10.5 |
| CC(C)(CC(=O)O)CC(=O)N(CCN1[C@@H]2CC[C@H]1C[C@@H](c1cccc(O)c1)C2)CC1CCCCC1 | 7 to 10.5 | < 40% | 7 to 10.5 |
| NC(=O)c1cccc([C@H]2C[C@H]3CC[C@@H](C2)N3CCN(CC2CCCC2)C(=O)CO)c1.O=C(O)C(F)(F)F | 7 to 10.5 | < 40% | 7 to 10.5 |
| CN(C)CCCC(=O)N(CCN1[C@@H]2CC[C@H]1C[C@@H](c1cccc(C(N)=O)c1)C2)CC1CCCCC1 | 7 to 10.5 | < 40% | 7 to 10.5 |
| O=C([C@H](O)C1CCCCC1)N(CCN1[C@@H]2CC[C@H]1C[C@@H](c1cccc(O)c1)C2)CC1CCCCC1 | 7 to 10.5 | < 40% | 7 to 10.5 |
| CS(=O)(=O)N(CCN1[C@@H]2CC[C@H]1C[C@@H](c1cccc(C(N)=O)c1)C2)Cc1ccccc1.O=C(O)C(F)(F)F | 7 to 10.5 | < 40% | 7 to 10.5 |
| NC(=O)c1cccc([C@H]2C[C@H]3CC[C@@H](C2)N3CCN(CC2CCCC2)C(=O)[C@H](O)CO)c1.O=C(O)C(F)(F)F | 7 to 10.5 | < 40% | 7 to 10.5 |
| NC(=O)c1cccc([C@H]2C[C@H]3CC[C@@H](C2)N3CCN(CCCC2CCCCC2)C(=O)CO)c1 | 7 to 10.5 | < 40% | 7 to 10.5 |
| CN(C)CC[C@H](O)C(=O)N(CCN1[C@@H]2CC[C@H]1C[C@@H](c1cccc(C(N)=O)c1)C2)CC1CCC(F)(F)CC1.O=C(O)C(F)(F)F.O=C(O)C(F)(F)F | 7 to 10.5 | < 40% | 7 to 10.5 |
| NC(=O)c1cccc([C@H]2C[C@H]3CC[C@@H](C2)N3CCN(CC2CCCCC2)C(=O)Cc2ccccc2)c1 | 7 to 10.5 | < 40% | 7 to 10.5 |
| NC(=O)c1cccc([C@H]2C[C@H]3CC[C@@H](C2)N3CCN(CCCc2ccccc2)C(=O)CO)c1 | 7 to 10.5 | < 40% | 7 to 10.5 |
| CN(C)[C@@H](Cc1ccccc1)C(=O)N(CCN1[C@@H]2CC[C@H]1C[C@@H](c1cccc(C(N)=O)c1)C2)CC1CCCCC1 | 7 to 10.5 | < 40% | 7 to 10.5 |
| NC(=O)c1cccc([C@H]2C[C@H]3CC[C@@H](C2)N3CCN(Cc2c(F)cccc2F)C(=O)[C@@H](O)CO)c1.O=C(O)C(F)(F)F | 7 to 10.5 | < 40% | 7 to 10.5 |
| NC(=O)c1cccc([C@H]2C[C@H]3CC[C@@H](C2)N3CCCN(Cc2ccccc2)C(=O)CO)c1 | 7 to 10.5 | < 40% | 7 to 10.5 |
| COCC(=O)N(CCN1[C@@H]2CC[C@H]1C[C@@H](c1cccc(C(N)=O)c1)C2)Cc1ccccc1.O=C(O)C(F)(F)F | 7 to 10.5 | < 40% | 7 to 10.5 |
| CN(C)CC(=O)N(CCN1[C@@H]2CC[C@H]1C[C@@H](c1cccc(C(N)=O)c1)C2)CC1CCCCC1 | 7 to 10.5 | < 40% | 7 to 10.5 |
| O=C(O)CCC(=O)N(CCN1[C@@H]2CC[C@H]1C[C@@H](c1cccc(O)c1)C2)Cc1ccccc1 | 7 to 10.5 | < 40% | 7 to 10.5 |

| Compound | pKi [1] | Intrinsic activity [2] | pKi [3] |
| --- | --- | --- | --- |
| CS(=O)(=O)CC(=O)N(CCN1[C@@H]2CC[C@H]1C[C@@H](c1cccc(O)c1)C2)CC1CCCCC1 | 7 to 10.5 | < 40% | 7 to 10.5 |
| CC(C)(CO)C(=O)N(CCN1[C@@H]2CC[C@H]1C[C@@H](c1cccc(C(N)=O)c1)C2)CC1CCCC1.O=C(O)C(F)(F)F | 7 to 10.5 | < 40% | 7 to 10.5 |
| NC(=O)c1cccc([C@H]2C[C@H]3CC[C@@H](C2)N3CCN(Cc2c(F)cccc2F)C(=O)[C@@H](O)Cc2ccccc2)c1.O=C(O)C(F)(F)F | 7 to 10.5 | < 40% | 7 to 10.5 |
| CC(=O)N(CCN1[C@@H]2CC[C@H]1C[C@@H](c1cccc(O)c1)C2)CC1CCCCC1 | 7 to 10.5 | < 40% | 7 to 10.5 |
| CS(=O)(=O)CC(=O)N(CCN1[C@@H]2CC[C@H]1C[C@@H](c1cccc(C(N)=O)c1)C2)CC1CCC(F)(F)CC1.O=C(O)C(F)(F)F | 7 to 10.5 | < 40% | 7 to 10.5 |
| CS(=O)(=O)N(CCN1[C@@H]2CC[C@H]1C[C@@H](c1cccc(C(N)=O)c1)C2)CC1CCCC1.O=C(O)C(F)(F)F | 7 to 10.5 | < 40% | 7 to 10.5 |
| O=C(O)CCC(=O)N(CCN1[C@@H]2CC[C@H]1C[C@@H](c1cccc(O)c1)C2)CC1CCCCC1 (single isomer, unassigned) | 7 to 10.5 | < 40% | 7 to 10.5 |
| NC(=O)c1cccc([C@H]2C[C@H]3CC[C@@H](C2)N3CCN(CCc2cccc(F)c2)C(=O)CO)c1.O=C(O)C(F)(F)F | 7 to 10.5 | < 40% | 7 to 10.5 |
| C[C@H](CN1[C@@H]2CC[C@H]1C[C@@H](c1cccc(O)c1)C2)N(Cc1ccccc1)C(=O)C1CCCCC1 | 7 to 10.5 | < 40% | 7 to 10.5 |
| C[C@H](CN1[C@@H]2CC[C@H]1C[C@@H](c1cccc(O)c1)C2)N(Cc1ccccc1)C(=O)C1CCCC1 | 7 to 10.5 | < 40% | 7 to 10.5 |
| CC(C)CC(=O)N(Cc1ccccc1)[C@H](C)CN1[C@@H]2CC[C@H]1C[C@@H](c1cccc(O)c1)C2 | 7 to 10.5 | < 40% | 7 to 10.5 |
| CC(=O)N(Cc1ccccc1)[C@H](C)CN1[C@@H]2CC[C@H]1C[C@@H](c1cccc(O)c1)C2 | 7 to 10.5 | < 40% | 7 to 10.5 |
| COC(=O)CCC(=O)N(CCN1[C@@H]2CC[C@H]1C[C@@H](c1cccc(C(N)=O)c1)C2)CC1CCCCC1 | 7 to 10.5 | < 40% | 7 to 10.5 |
| NC(=O)c1cccc([C@H]2C[C@H]3CC[C@@H](C2)N3CCN(CCC2CCCCC2)C(=O)CO)c1 | 7 to 10.5 | < 40% | 7 to 10.5 |
| O=C(O)CC1(CC(=O)N(CCN2[C@@H]3CC[C@H]2C[C@@H](c2cccc(O)c2)C3)CC2CCCCC2)CCCC1 | 7 to 10.5 | < 40% | 7 to 10.5 |
| NC(=O)c1cccc([C@H]2C[C@H]3CC[C@@H](C2)N3CCN(CC2CCC2)C(=O)[C@@H](O)CO)c1.O=C(O)C(F)(F)F | 7 to 10.5 | < 40% | 7 to 10.5 |
| NC(=O)c1cccc([C@H]2C[C@H]3CC[C@@H](C2)N3CCN(CCc2ccccc2)C(=O)[C@@H](O)CO)c1.O=C(O)C(F)(F)F | 7 to 10.5 | < 40% | 7 to 10.5 |
| NC(=O)CCC(=O)N(CCN1[C@@H]2CC[C@H]1C[C@@H](c1cccc(O)c1)C2)CC1CCCCC1 | 7 to 10.5 | < 40% | 7 to 10.5 |
| O=C(Cc1ccccc1)N(CCN1[C@@H]2CC[C@H]1C[C@@H](c1cccc(O)c1)C2)CC1CCCCC1 | 7 to 10.5 | < 40% | 7 to 10.5 |
| CCC(CC)C(=O)N(CCN1[C@@H]2CC[C@H]1C[C@@H](c1cccc(O)c1)C2)Cc1ccccc1 | 7 to 10.5 | < 40% | 7 to 10.5 |
| CCCCCNC(=O)N(CCN1[C@@H]2CC[C@H]1C[C@@H](c1cccc(O)c1)C2)CC1CCCCC1 | 7 to 10.5 | < 40% | 7 to 10.5 |
| O=C(O)CCC(=O)N(CCN1[C@@H]2CC[C@H]1C[C@@H](c1cccc(O)c1)C2)Cc1c(F)cccc1F | 7 to 10.5 | < 40% | 7 to 10.5 |
| N#CCC(=O)N(CCN1[C@@H]2CC[C@H]1C[C@@H](c1cccc(C(N)=O)c1)C2)Cc1c(F)cccc1F.O=C(O)C(F)(F)F | 7 to 10.5 | < 40% | 7 to 10.5 |
| NC(=O)c1cccc([C@H]2C[C@H]3CC[C@@H](C2)N3CCN(Cc2c(F)cccc2F)C(=O)C2(O)CC2)c1.O=C(O)C(F)(F)F | 7 to 10.5 | < 40% | 7 to 10.5 |
| NC(=O)c1cccc([C@H]2C[C@H]3CC[C@@H](C2)N3CCN(Cc2ccc(C(F)(F)F)cc2)C(=O)CO)c1.O=C(O)C(F)(F)F | 7 to 10.5 | < 40% | 7 to 10.5 |
